Each block holds one compound with its values, some of them ahead of it.
What was measured:
Assay type in all cases: functional, cell membranes, Membrane vesicle
Design in all cases: scale not given: the % may be the effect or the level left
MRP5 (ABCC5) [1] = target: T1, MRP5 (ABCC5) (Homo sapiens, UniProt O15440); assay: TP_TRANSPORTER: inhibition of cGMP uptake (cGMP: 5 uM, Fluorescein diacetate: 50 uM) in membrane vesicles from MRP5-expressing V79 cells; details: hamster, probe cGMP (5 uM), read-out: Activity
[2] = target: ATP-binding cassette sub-family C member 5 (Homo sapiens, UniProt O15440); assay: TP_TRANSPORTER: inhibition of cGMP uptake (cGMP: 5 uM, Probenecid: 50 uM) in membrane vesicles from MRP5-expressing V79 cells; details: hamster, v79, 50 µM
MRP5 (ABCC5) [3] = target: T1, MRP5 (ABCC5); assay: TP_TRANSPORTER: inhibition of cGMP uptake (cGMP: 5 uM, Sildenafil: 1 uM) in membrane vesicles from MRP5-expressing V79 cells; details: hamster, probe cGMP (5 uM), read-out: Activity
MRP5 (ABCC5) [4] = target: T1, MRP5 (ABCC5); assay: TP_TRANSPORTER: inhibition of cGMP uptake (cGMP: 5 uM, Zaprinast: 10 uM) in membrane vesicles from MRP5-expressing V79 cells; details: hamster, probe cGMP (5 uM), read-out: Activity
MRP5 (ABCC5) [5] = target: T1, MRP5 (ABCC5); assay: TP_TRANSPORTER: inhibition of cGMP uptake (cGMP: 5 uM, Trequinsin: 1 uM) in membrane vesicles from MRP5-expressing V79 cells; details: hamster, probe cGMP (5 uM), read-out: Activity

T1 sequence (O15440 whole entry): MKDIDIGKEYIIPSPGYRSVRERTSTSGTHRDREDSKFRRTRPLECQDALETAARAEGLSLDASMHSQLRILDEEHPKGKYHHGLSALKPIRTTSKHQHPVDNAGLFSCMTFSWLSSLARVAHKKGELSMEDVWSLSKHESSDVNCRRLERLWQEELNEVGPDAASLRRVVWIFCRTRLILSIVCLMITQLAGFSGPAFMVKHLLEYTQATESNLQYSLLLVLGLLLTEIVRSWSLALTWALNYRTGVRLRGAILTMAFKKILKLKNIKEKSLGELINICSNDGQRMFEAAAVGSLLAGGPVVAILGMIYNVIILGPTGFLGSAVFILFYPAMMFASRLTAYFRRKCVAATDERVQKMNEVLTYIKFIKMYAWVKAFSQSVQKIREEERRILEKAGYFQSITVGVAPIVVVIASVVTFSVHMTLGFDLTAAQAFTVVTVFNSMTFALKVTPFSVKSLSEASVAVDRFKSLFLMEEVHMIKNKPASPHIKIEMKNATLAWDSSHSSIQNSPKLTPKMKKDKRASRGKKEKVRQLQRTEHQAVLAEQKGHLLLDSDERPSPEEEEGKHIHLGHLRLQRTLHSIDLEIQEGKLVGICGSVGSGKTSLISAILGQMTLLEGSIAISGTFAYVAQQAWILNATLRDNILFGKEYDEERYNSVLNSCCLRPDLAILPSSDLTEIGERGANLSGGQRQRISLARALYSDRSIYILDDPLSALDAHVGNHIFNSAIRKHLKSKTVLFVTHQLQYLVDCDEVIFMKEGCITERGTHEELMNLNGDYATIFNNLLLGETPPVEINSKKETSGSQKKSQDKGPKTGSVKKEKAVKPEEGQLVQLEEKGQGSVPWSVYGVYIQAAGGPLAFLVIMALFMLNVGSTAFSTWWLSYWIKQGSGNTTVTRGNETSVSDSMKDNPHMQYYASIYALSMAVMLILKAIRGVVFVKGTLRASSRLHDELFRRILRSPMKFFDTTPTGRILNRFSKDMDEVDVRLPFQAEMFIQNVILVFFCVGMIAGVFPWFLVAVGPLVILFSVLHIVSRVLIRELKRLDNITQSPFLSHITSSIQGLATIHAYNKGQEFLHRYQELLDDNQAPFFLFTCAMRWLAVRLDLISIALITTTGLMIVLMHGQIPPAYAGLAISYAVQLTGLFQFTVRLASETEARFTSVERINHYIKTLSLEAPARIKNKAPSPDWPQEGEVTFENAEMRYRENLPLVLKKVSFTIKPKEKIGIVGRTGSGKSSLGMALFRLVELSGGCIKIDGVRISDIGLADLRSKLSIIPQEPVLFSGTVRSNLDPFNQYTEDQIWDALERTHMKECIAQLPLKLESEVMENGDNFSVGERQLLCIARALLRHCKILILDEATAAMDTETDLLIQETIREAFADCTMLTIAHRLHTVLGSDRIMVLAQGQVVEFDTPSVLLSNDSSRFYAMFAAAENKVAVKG
Sequence of ATP-binding cassette sub-family C member 5 (O15440 whole entry): as above

activity at 50 µM (MRP5 (ABCC5) [1]): 49.2%
Compound: CC(=O)Oc1ccc2c(c1)Oc1cc(OC(C)=O)ccc1C21OC(=O)c2ccccc21 [FLUORESCEIN DIACETATE]

Activity [2]: 31.7%
Compound: CCCN(CCC)S(=O)(=O)c1ccc(C(=O)O)cc1 [PROBENECID]

activity at 1 µM (MRP5 (ABCC5) [3]): 22%
Compound: CCCc1nn(C)c2c(=O)[nH]c(-c3cc(S(=O)(=O)N4CCN(C)CC4)ccc3OCC)nc12

activity at 10 µM (MRP5 (ABCC5) [4]): 41%
Compound: CCCOc1ccccc1-c1nc2nn[nH]c2c(=O)[nH]1 [ZAPRINAST]

activity at 1 µM (MRP5 (ABCC5) [5]): 26.2%
Compound: COc1cc2c(cc1OC)-c1c/c(=N\c3c(C)cc(C)cc3C)n(C)c(=O)n1CC2 [TREQUINSIN]

Source: ChEMBL document CHEMBL2074325, “The multidrug resistance protein 5 functions as an ATP-dependent export pump for cyclic nucleotides” (J Biol Chem, 2000)
